Measurements taken from patent publication US8728797B2, “Yeast membrane protein expression system and its application in drug screening” (priority 2001, dated 2014).
Values after ≈ are worked out from the molar mass of the structure shown. Marks after values point to notes of the source that are not given here.

Columns and labels:
[1] = system: S. cerevisiae AD1-8 sec6-4/CDR1; assay: MIC microdilution test, sec6-4 host with CDR1; assay type: cell-based; details: Saccharomyces cerevisiae, 30° C.
Procedure: (§1) The MICs of antifungal agents for S. cerevisiae cells were determined by a microdilution test based on the macrodilution reference method of the National Committee for Clinical Laboratory Standards. Cells (10 μl cell suspension, 2×10^5 cells/ml) were inoculated into 90 μl CSM-URA, buffered with 10 mM 2-(N-morpholino)ethanesulfonic acid (MES) and 18 mM N-2-hydroxyethylpiperazine-N′-2-ethanesulfonic acid (HEPES), pH 7.0 and containing 0.67% (w/v) yeast nitrogen base (YNB) in microtitre plate wells. For the uracil-requiring strain AD1-8u^− the medium was supplemented with 0.02% (w/v) uridine. The wells contained, in […], doubling dilutions of antifungal agents (final concentrations: fluconazole, 40-0.078 μg/ml; itraconazole and ketoconazole, 8-0.016 μg/ml). The microtitre plates were incubated at 30° C. for 48 h with shaking and then the growth of cells in individual wells (OD590) was measured with a microplate reader (EL 340, Bio-Tek, Winooski, Vt.). The MIC80 was the lowest concentration of drug that inhibited growth yield by at least 80% compared to a no-drug control.

[2] = system: AD-ERG11 (Erg11p); assay: MIC in liquid microdilution assay, AD-ERG11; assay type: cell-based, S. cerevisiae; details: Saccharomyces cerevisiae
Procedure: as §1

[3] = system: AD-PDR5 (Pdr5p); assay: Disk diffusion assay, AD-PDR5; assay type: cell-based, S. cerevisiae; details: AD-pABC as negative control, 30° C., 48 h
Procedure: (§2) The cells were spread on CSM-agar plates and exposed to the drugs or chemicals applied to filter disks and incubated at 30° C. for 48 h. The amounts of individual drugs are given in the Materials and Methods section of Example 3. Rhodamine 6G and rhodamine 123 were dissolved in ethanol and the other antifungals were dissolved in DMSO.
(§3) Drug susceptibility was measured using disk assays on CSM-URA plates (containing 1.5% w/v agar). Yeast cells (200 μl ml of 5×10^6 cells/ml) were spread on the plates. 10 μl of drug solution or solvent control were spotted onto sterile Whatman paper disks on the pre-spread plates. The following amounts (nmoles) of drugs were applied to individual disks: fluconazole, 633 (Pfizer Ltd., Sandwich, Kent, United Kingdom); itraconazole, 0.23 (Janssen); miconazole, 0.42 (Janssen); cycloheximide, 0.71 (Sigma); rhodamine 6G, 100 (Sigma, Penrose, Auckland, N. Z.); rhodamine 123, 125 (Sigma); cerulenin 4.5 (Sigma); 5-flucytosine 100 (Sigma); amphotericin B, 97 (E. R. Squibb & Sons, Princeton, N.J.); nystatin 65 (Sigma). Agar plates were incubated at 30° C. for 48 h or until clear growth inhibition zones were visible.

[4] = system: AD-BEN^R (Ben^Rp); assay: Disk diffusion assay, AD-BEN^R; assay type: cell-based, S. cerevisiae; details: AD-pABC as negative control, 30° C., 48 h
Procedure: as §2, §3

[5] = system: AD-ERG11 (Erg11p); assay: Disk diffusion assay, AD-ERG11; assay type: cell-based, S. cerevisiae; details: AD-pABC as negative control, 30° C., 48 h
Procedure: as §2, §3

[6] = system: C. parapsilosis 425; assay: Checkerboard chemosensitisation to fluconazole; assay type: cell-based; details: KN20 0-80 μM and FCZ 32 μg/ml tested, no chemosensitisation
Procedure: Checkerboard drug susceptibility assays were used to measure the chemosensitisation of cells to fluconazole by test compounds such as Pdr5p inhibitors. […] Cell inocula, growth conditions and the optical determination of growth were identical to standard liquid MIC determinations. The assays were conducted in 6 by 6 well arrays centred in a 96 well microtitre plate using buffered CSM-URA medium at pH 7.0, with fluconazole and/or peptide included in each well at the indicated concentration.

## OC(Cn1cncn1)(Cn1cncn1)c1ccc(F)cc1F [fluconazole]
[1]
  MIC80: 80 µg/mL (≈ 261 µM)
[2]
  MIC: 2 µg/mL (≈ 6.53 µM)
[3]
  resistance/sensitivity in disk diffusion assay: resistances
[4]
  resistance/sensitivity in disk diffusion assay: resistant
[5]
  resistance/sensitivity in disk diffusion assay: modest resistance

## D-octapeptide NH2-Asn-Trp-Trp-Lys-Val-Arg-Arg-Arg-CONH2 with a single 4-methoxy-2,3,6-trimethylbenzenesulphonyl (Mtr) substituent on one tryptophan sidechain; Pdr5p inhibitor [KN20]
[6]
  Fold-sensitisation by KN20 (For FCZ MIC): 1^b fold
